The record followed here is patent EP0576227A2, “2'-Deoxy-2',2'-difluoro(2,6,8-substituted) purine nucleosides having anti-viral and anti-cancer activity and intermediates” (ELI LILLY AND COMPANY, priority 1992, dated 1993).

Data set [1] concerns human leukemia cells (CCRF-CEM cell line). In words: Growth inhibition of human leukemia cells (CCRF-CEM cytotoxicity screen). Format: cell-based. Particulars: concentration giving 50 percent growth inhibition; CCRF-CEM cell line. From the text:
In another aspect, the invention provides a method of treating susceptible neoplasms in mammals comprising administering to a mammal in need of such treatment a pharmaceutically effective amount of a compound of formula (I). […] The treatment contemplated by the present method includes both medical therapeutic and prophylactic treatment, as appropriate. The specific dosage level of the compound administered according to this invention will, of course, be determined by the circumstances surrounding the case, including, for example, the particular compound administered, the route of administration, and the condition being treated. The compounds are effectively administered orally, topically, or parenterally. […] The representative compounds of formula (I) employed in the present invention are cytotoxic as they inhibit the growth of rapidly dividing human leukemia cells (CCRF-CEM cell line). Table 1 below gives the results of testing several compounds representative of formula (I).

Data set [2] concerns Human Cytomegalovirus (HCMV) strain AD169. In words: Human Cytomegalovirus Test (plaque inhibition in WI-38 cells). Format: cell-based. Particulars: read-out: Percent Plaque Inhibition at Specified µg/ml conc. How it is done:
WI-38 cells (American Type Culture Collection; CCL-35) were seeded into 24-well plates in MEM media (GIBCO) supplemented with 10% fetal bovine serum and penicillin/streptomycin. The plates wre incbated at 37°C, in 5 percent carbon dioxide in a humidified incubator for 3 days. Human Cytomegalovirus (HCMV) strain AD169 (American Type Culture Collection) was added to each well (40 plaque forming unites in 100 µl of media) and the virus was allowed to adsorb to the cells for 2 hours at room temperature. The compound of Example 5 was dissolved in 100 percent dimethylsulfoxide at a concentration of 20 mgs/ml and diluted with media to yield final concentrations of 50, 25, 12.5, 6.25, 3.13, 1.6, 0.8, 0.4, 0.2, and 0.1 µg/ml in one set of experiments and 32, 10, 3.2, 1, and 0.32 µg/ml in another set of experiments. Each concentration was done in duplicate. In all experiments, Cytovene (DHPG) was used as a positive control.
The infected cells were incubated for 10 days at 37°C, 5 percent carbon dioxide, in an humidified incubator without changes of media. After incubation, the cells were fixed for at least 15 minutes with 10 percent formalin and rinsed with water. After rinsing, the cells were stained for at least 15 minutes with crystal violet and allowed to dry. HCMV induced plaques were counted with the aid of an iverted microscope. The number of viral plaques appearing in cells treated with each concentration of the Example 5 compound was compared to the number of viral plaques in cells left untreated ("no-drug control") and the percent inhibition of viral plaque formation was calculated. The concentration of the Example 5 compound required to inhibit viral plaque formation by 50 percent was determined using linear regression analysis.

Data set [3] concerns HC1 human colon carcinoma. The data set can be described thus: HC1 human colon carcinoma xenograft in mice, tumor weight inhibition. Format: in vivo, Nu/Nu CD-1 mice. Particulars: Intra-Peritoneal 0.5 ml, Daily X 10. From the text:
The HC1 human colon carcinoma xenograft was obtained in 1987 from Drs. Peter and Janet Houghton, St. Jude Children's Hospital, Memphis, TN. The tumor is a moderately well-differentiated adenocarcinoma of the ascending colon [British Journal of Cancer, 37, p 213-223 (1987)]. The first passage tumor was stored in liquid nitrogen using standard techniques. The tumors were maintained in serial passage Nu/Nu CD-1 mice (Charles River Laboratories, Portage, MI.).
The study testing the efficacy of these compounds against HC1 human colon carcinoma was initiated by removing a tumor from passage animals and mincing it into 1 to 3 mm square fragments using sterile techniques. Tumor pieces were checked for sterility using both an Antibiotic Medium 1 and Brain Heart Infusion (Difco; Detroit, MI). Tumor pieces were implanted subcutaneously in the auxilary region of recipient mice by trocar. Drug therapy on the appropriate schedule was initiated 14 days after tumor implantation. Drugs were dissolved in Emulphor for all experiments. All animals were weighed at the beginning and end of drug treatment. Food and water were provided ad libitum. On day 14 after the initiation of therapy, two dimensional measurements (width and length) of all tumors were taken using electronic calipers interfaced to a computer. Tumor weights were calculated from these measurements using the following formula: Tumor Weight (mg) = Tumor Length (mm) X Tumor Width (mm)²/2
For all data, the tumor weight was rounded to the nearest tenth of a gram for analysis. No group is included in the analysis for therapeutic activity in which deaths attributable to drug toxicity exceeded 20 percent of the treated group. Compounds are considered active if more than 60 percent inhibition of tumor growth, as determined by tumor weight, is achieved at maximally tolerated doses.
In Table 2 which follows, Column 1 gives the example number of the compound tested; Column 2, the dose level; Column 3, the route administered; Column 4, the dosage schedule; Column 5, the percent inhibition of the tumor; and Column 6; the toxic deaths observed prior to completion of the study.
(In xenograft studies the graft and the host belong to different species.)

Each structure is given as a SMILES string. Converted amounts (≈) assume the structure as drawn.

`Nc1nc(S)c2ncn([C@@H]3O[C@H](CO)[C@@H](O)C3(F)F)c2n1` [(h), 2-deoxy-2,2-difluoro-D-ribofuranosyl-1-β-(2-amino-6-thiopurine)]: the IC50 – broadly, the concentration at which inhibition is half-maximal – in data set [1] came out at 4.3 µg/mL (≈ 13.5 µM).
As to `Nc1nc2c(ncn2COC(CO)CO)c(=O)[nH]1` [Cytovene], in data set [2] (Human betaherpesvirus 5, AD169, 240 h, 0.2 µg/ml, WI-38 cells, 10 days), the inhibition at 0.2 µg/mL amounted to 31%. The inhibition at 0.4 µg/mL in data set [2] (Human betaherpesvirus 5, AD169, 240 h, 0.4 µg/ml, WI-38 cells, 10 days) is 31%. For the same compound, in data set [2] (Human betaherpesvirus 5, AD169, 240 h, 0.8 µg/ml, WI-38 cells, 10 days), the inhibition at 0.8 µg/mL came out at 40%. Besides, the inhibition at 1.6 µg/mL in data set [2] (Human betaherpesvirus 5, AD169, 240 h, 1.6 µg/ml, WI-38 cells, 10 days) came out at 65.5%. The inhibition at 6.25 µg/mL in data set [2] (Human betaherpesvirus 5, AD169, 240 h, 6.25 µg/ml, WI-38 cells, 10 days) was found to be 98%. The inhibition at 12.5 µg/mL in data set [2] (Human betaherpesvirus 5, AD169, 240 h, 12.5 µg/ml, WI-38 cells, 10 days) amounted to 100%. Also, the inhibition at 25 µg/mL in data set [2] (Human betaherpesvirus 5, AD169, 240 h, 25 µg/ml, WI-38 cells, 10 days) was found to be 100%. The inhibition at 50 µg/mL in data set [2] (Human betaherpesvirus 5, AD169, 240 h, 50 µg/ml, WI-38 cells, 10 days) was 100%. For the same compound, the inhibition at 3.12 µg/mL in data set [2] (Human betaherpesvirus 5, AD169, WI-38, 240 h) came out at 91%.
Turning to `Nc1nc(Cl)c2ncn([C@@H]3O[C@H](CO)[C@@H](O)C3(F)F)c2n1` [Example 1, 2-deoxy-2,2-difluoro-D-ribofuranosyl-1-β-(2-amino-6-chloropurine)], in data set [1], the “IC50” value was determined as 0.007 µg/mL (≈ 0.0218 µM).
Still for that read-out and setting: the figure for `COc1nc(N)nc2c1ncn2[C@@H]1O[C@H](CO)[C@@H](O)C1(F)F` [Example 2, 2-deoxy-2,2-difluoro-D-ribofuranosyl-1-β-(2-amino-6-methoxypurine)] is 0.037 µg/mL (≈ 0.117 µM).
With `CCOc1nc(N)nc2c1ncn2[C@@H]1O[C@H](CO)[C@@H](O)C1(F)F` [Example 3, 2-deoxy-2,2-difluoro-D-ribofuranosyl-1-β-(2-amino-6-ethoxypurine)], the “IC50” value in data set [1] stood at 0.2 µg/mL (≈ 0.604 µM). The results for the “Percent Inhibition of Tumor” value in data set [3] (25 mg/kg), in data set [3] (50 mg/kg) and in data set [3] (100 mg/kg) were 98%, 97% and 98%, respectively. In addition, the “Toxic Deaths” value in data set [3] (25 mg/kg), in data set [3] (50 mg/kg) and in data set [3] (100 mg/kg) was 0/10 each time.
Regarding `CN(C)c1nc(N)nc2c1ncn2[C@@H]1O[C@H](CO)[C@@H](O)C1(F)F` [Example 4, 2-deoxy-2,2-difluoro-D-ribofuranosyl-1-β-(2-amino-6-dimethylaminopurine)], in data set [1], the “IC50” value stood at 4.6 µg/mL (≈ 13.9 µM).
For `Nc1nc(I)c2ncn([C@@H]3O[C@H](CO)[C@@H](O)C3(F)F)c2n1` [Example 6, 2-deoxy-2,2-difluoro-D-ribofuranosyl-1-β-(2-amino-6-iodopurine)], the half-maximal inhibitory concentration (IC50) in data set [1] worked out at 0.093 µg/mL (≈ 0.225 µM).
Same read-out and setting: under `N#Cc1nc(N)nc2c1ncn2[C@@H]1O[C@H](CO)[C@@H](O)C1(F)F` [Example 7, 2-deoxy-2,2-difluoro-D-ribofuranosyl-1-β-(2-amino-6-cyanopurine)] stands 2.5 µg/mL (≈ 8.01 µM); under `Nc1nc(O)nc2c1ncn2[C@@H]1O[C@H](CO)[C@@H](O)C1(F)F` [Example 9, 2-deoxy-2,2-difluoro-D-ribofuranosyl-1-β-(2-hydroxyadenosine)], 0.7 µg/mL (≈ 2.31 µM); under `Nc1nc(F)nc2c1ncn2[C@@H]1O[C@H](CO)[C@@H](O)C1(F)F` [Example 10, 2-deoxy-2,2-difluoro-D-ribofuranosyl-1-β-(2-fluoroadenosine)], 0.094 µg/mL (≈ 0.308 µM).
On the same count and under the same terms, under `OC[C@H]1O[C@@H](n2cnc3cncnc32)C(F)(F)[C@@H]1O` [Example 11, 2-deoxy-2,2-difluoro-D-ribofuranosyl-1-β-purine] stands 1.3 µg/mL (≈ 4.78 µM); under `Cc1nc(N)nc2c1ncn2[C@@H]1O[C@H](CO)[C@@H](O)C1(F)F` [Example 13, 2-deoxy-2,2-difluoro-D-ribofuranosyl-1-β-(2-amino-6-methylpurine)], 2.6 µg/mL (≈ 8.63 µM).
